Earlier results, collected in patent US20240189234A1, “SILICON PARTICLES FOR DRUG DELIVERY” (NACAMED AS, priority 2021, published 2024).

Conditions: calculated log P values from Foye's Principles of Medicinal Chemistry

| SMILES | log P |
| --- | --- |
| CCOC(=O)[C@H](CCc1ccccc1)N[C@@H](C)C(=O)N1CCC[C@H]1C(=O)O [enalapril] | 3.25 |
| COc1ccc([C@@H]2Sc3ccccc3N(CCN(C)C)C(=O)[C@@H]2OC(C)=O)cc1 [diltiazem] | 4.73 |
| O=C(CCCCC(=O)Nc1c(I)cc(I)c(C(=O)O)c1I)Nc1c(I)cc(I)c(C(=O)O)c1I [iodipamide] | 5.10 |
| CCCCCCC(=O)OCCN1CCN(CCCN2c3ccccc3Sc3ccc(C(F)(F)F)cc32)CC1 [fluphenazine enanthate] | 7.29 |
| COC(=O)[C@H]1[C@H]2C[C@@H]3c4[nH]c5ccccc5c4CCN3C[C@H]2C[C@@H](OC(=O)c2cc(OC)c(OC)c(OC)c2)[C@@H]1OC [deserpidine] | 4.95 |
| OC(c1ccccc1)(c1ccccc1)C1CCCCN1 (centres unmarked) [pipradrol] | 3.61 |
| CN1CCC(=C2c3ccccc3C=Cc3ccccc32)CC1 [cyproheptadine] | 4.92 |
| CCCCc1cc2ccccc2c(OCCN(C)C)n1 [dimethisoquin] | 4.04 |
| O=C(Nc1ccccc1)OCC(CN1CCCCC1)OC(=O)Nc1ccccc1 (centres unmarked) [diperodon] | 4.65 |

Conditions: oral

| SMILES | absolute bioavailability |
| --- | --- |
| CC(C)NCC(O)COc1cccc2ccccc12 (centres unmarked) [propranolol] | 26% |
| CCCCC(=O)N(Cc1ccc(-c2ccccc2-c2nnn[nH]2)cc1)[C@H](C(=O)O)C(C)C [valsartan] | 25% |
| CCOC(=O)[C@H](CCc1ccccc1)N[C@@H](C)C(=O)N1CCC[C@H]1C(=O)O [enalapril] | 60% |
| COc1ccc([C@@H]2Sc3ccccc3N(CCN(C)C)C(=O)[C@@H]2OC(C)=O)cc1 [diltiazem] | 40% |
| CC[C@H]1OC(=O)[C@H](C)[C@@H](O[C@H]2C[C@@](C)(OC)[C@@H](O)[C@H](C)O2)[C@H](C)[C@@H](O[C@@H]2O[C@H](C)C[C@H](N(C)C)[C@H]2O)[C@](C)(O)C[C@@H](C)CN(C)[C@H](C)[C@@H](O)[C@]1(C)O [azithromycin] | 40% |
| CCOc1nc2cccc(C(=O)O)c2n1Cc1ccc(-c2ccccc2-c2nnn[nH]2)cc1 [candesartan] | 40% |
| C[C@@H]1[C@H](O)[C@@H](C)/C=C/C=C/C=C/C=C/C=C/C=C/C=C/[C@H](O[C@@H]2O[C@H](C)[C@@H](O)[C@H](N)[C@@H]2O)C[C@@H]2O[C@](O)(C[C@@H](O)C[C@@H](O)[C@H](O)CC[C@@H](O)C[C@@H](O)CC(=O)O[C@H]1C)C[C@H](O)[C@H]2C(=O)O [amphotericin B] | very low |
| CC1(C)S[C@@H]2[C@H](NC(=O)COc3ccccc3)C(=O)N2[C@H]1C(=O)O [phenoxymethylpenicillin] | 50% |
